Assay results published in patent US8765946B2, “Methods of preparing and using quinazoline and quinoline derivatives” (priority 2006, dated 2014).

How the values were obtained:
A431 cells = experiment: A431 cell growth inhibition assay (MTT assay); format: cell-based; conditions: Homo sapiens; for inhibition at 3 µM: A-431, concentration of 3 μM, 72 hours, read-out: Inhibition Percent (%)
Method: A431 Cell Growth Inhibition Assay (MTT Assay)
A431, an epidermoid carcinoma cell line; The Cell Bank, Committee on Type Culture Collection Chinese Academy of Science, Shanghai.
Mix prepared medium DMEM and F12 in the proportion of 1:1, then add FBS to a final concentration of 10%.
Dissolved the dried compound sample with 100% DMSO to 2 mM. Then diluted the dissolved compound to 20 μM with cell complete growth medium.
Prior to the assay, cultured the A431 to logarithmic phase, and then removed medium from cell monolayers and wash the cells once with sterilized PBS. Aspriated the PBS and added 2 mL trypsin solution to cover the cell growth surface, removed 1 mL trypsin solution after soaking about 1 minute. Transferred the cell-culture plate to CO2 incubator; incubated at 37° C. for 8 minutes to allow cells to dissociate. After the cells detached, added 4 mL complete growth medium containing FBS with pipette to disperse them off and mixed gently to obtain a homogeneous cell suspension. Aspirated some of the cell suspension to a sterilized polypropylene tube, and determined the cell concentration by counting in a hematocytometer chamber under a microscope. Adjusted the cell concentration with growth medium to obtain 2.5×10^4 cells per milliliter.
Added 100 μL adjusted cell suspension to the 96-well cell-culture plate and occasionally mixed the cell suspension during the seeding process. After seeding cells, incubated the plate at 37° C. overnight with 5% CO2 in the CO2 incubator for cell attachment.
After the cell attachment, added 100 μL prepared compound solutions to the corresponding wells (add PBS to the ambient wells of the plate). The final compound concentrations ranged from 10 μM to 1.52 nM. Incubated the plate at 37° C. with 5% CO2 for 72 hours in the CO2 incubator.
After the exposure to the compound, removed the cell culture supernatant. Then added 100 μL 0.5 mg/mL MTT solution which dissolved in the growth medium without FBS. Incubated the plate at 37° C. with 5% CO2 for another 4 hours to allow the MTT reaction to proceed.
After the MTT reaction, discarded the MTT reaction solution. Added 100 μL DMSO to each well, and the plate was agitated on the plate shaker for several minutes to dissolve the formazan. Then, detected the absorbance at 490 nm using microplate reader.

BT474 cells = experiment: BT-474 cell growth inhibition assay (SRB assay); format: cell-based; conditions: Homo sapiens, concentration of 3 μM, 72 h, read-out: Inhibition Percent (%)
Method: BT-474 Cell Growth Inhibition Assay (SRB Assay)
BT-474 human breast cancer cell lines were kindly provided by Dr. Changnian Liu, Pharmaron Beijing Co., Ltd.
BT-474 cells were cultured in 37° C., 5% CO2, saturated humidity until logarithmic phase. Discarded culture medium, washed cells once by PBS. Added 1 ml Trypsin/EDTA solution, stood at 37° C. for 5 min, allowed the cells to detach. Added culture medium, adjusted the cells density to 1×10^5 cells/ml.
Day 0, added 100 μl/well cells suspension to 96-well cell culture plates. Incubated overnight to let the cells attach completely.
Day 1, compounds (2 mM in DMSO as stock solution) was diluted to 20 μM in EMEM. Then a fourfold serial dilution was made. These diluted compounds were made as 10× reaction solutions, and the concentration of DMSO was kept at 1%.
Added 80 μl culture medium and 20 μl 10× compound reaction solution to the testing wells, or vehicle control to the control wells. Co-incubated cells with compounds for another 72 h.
Day 3, fixed cellular protein by the addition of 100 μl/well of 10% TCA (diluting from 50% TCA) at 4° C. for 1 h. Rinsed TCA using plate washer, and washed five times using distilled water. Removed the residual wash solution with a piece of absorbent paper. Added 100 μl/well 0.4% SRB solution, allowed a 15-30 min staining period. Removed the SRB, and washed the culture plates five times using 1% acetic acid. Removed the residual wash solution with a piece of absorbent paper. Air-dried the culture plates, dissolved the protein-bound dye with 100 μl/well of 10 mM Tris base solution. Shook the plates until the dye was dissolved completely.

Work on CCOc1cc2ncc(C#N)c(Nc3ccc(OCc4ccccn4)c(Cl)c3)c2cc1NC(=O)C=C1CCN(CCOC)CC1 [Example 161, N-(4-(3-chloro-4-(pyridin-2-ylmethoxy)phenylamino)-3-cyano-7-ethoxyquinolin-6-yl)-2-(1-(2-methoxyethyl)piperidin-4-ylidene)acetamide] yielded an inhibition at 3 µM (A431 cells) of 49% and an inhibition at 3 µM (BT474 cells) of 90%.
COCCOc1cc2ncc(C#N)c(Nc3ccc(OCc4cccc(F)c4)c(Cl)c3)c2cc1NC(=O)C=C1CCN(C)CC1 [Example 208, N-(4-(4-(3-fluorobenzyloxy)-3-chlorophenylamino)-3-cyano-7-(2-methoxyethoxy)quinolin-6-yl)-2-(1-methylpiperidin-4-ylidene)acetamide] showed an inhibition at 3 µM (BT474 cells) of 83%.
C#Cc1cccc(Nc2c(C#N)cnc3cc(OCC)c(NC(=O)C=C4CCNCC4)cc23)c1 [Example 152, N-(3-cyano-7-ethoxy-4-(3-ethynylphenylamino)quinolin-6-yl)-2-(piperidin-4-ylidene)acetamide] showed an EC50 (A431 cells; A-431, 72 hours (Table 11)) of 140 nM, an inhibition at 3 µM (A431 cells) of 95% and an inhibition at 3 µM (BT474 cells) of 59%.
COCCOc1cc2ncc(C#N)c(Nc3cccc(Br)c3)c2cc1NC(=O)C=C1CCNCC1 [Example 171, N-(4-(3-bromophenylamino)-3-cyano-7-(2-methoxyethoxy)quinolin-6-yl)-2-(piperidin-4-ylidene)acetamide] gave an inhibition at 3 µM (A431 cells) of 86% and an inhibition at 3 µM (BT474 cells) of 60%.
With COCCOc1cc2ncc(C#N)c(Nc3ccc(OCc4cccc(F)c4)c(Cl)c3)c2cc1NC(=O)C=C1CCNCC1 [Example 167, N-(4-(4-(3-fluorobenzyloxy)-3-chlorophenylamino)-3-cyano-7-(2-methoxyethoxy)quinolin-6-yl)-2-(piperidin-4-ylidene)acetamide] the inhibition at 3 µM (A431 cells) was 45% and the inhibition at 3 µM (BT474 cells) was 84%.
CCOc1cc2ncc(C#N)c(Nc3ccc(OCc4cccc(F)c4)c(Cl)c3)c2cc1NC(=O)C=C1CCN(CC)CC1 [Example 206, N-(4-(4-(3-fluorobenzyloxy)-3-chlorophenylamino)-3-cyano-7-ethoxyquinolin-6-yl)-2-(1-ethylpiperidin-4-ylidene)acetamide] was tested, and the inhibition at 3 µM (BT474 cells) was 80%.
In the case of COc1cc2ncc(C#N)c(Nc3ccc(Oc4cccc(F)c4)c(Cl)c3)c2cc1NC(=O)C=C1CCNCC1 [Example 146, N-(4-(3-chloro-4-(3-fluorophenoxy)phenylamino)-3-cyano-7-methoxyquinolin-6-yl)-2-(piperidin-4-ylidene)acetamide], the inhibition at 3 µM (A431 cells) is reported as 52% and the inhibition at 3 µM (BT474 cells) is reported as 85%.
For CCOc1cc2ncc(C#N)c(Nc3ccc(OCc4cccc(F)c4)c(Cl)c3)c2cc1NC(=O)C=C1CCN(C)CC1 [Example 162, N-(4-(4-(3-fluorobenzyloxy)-3-chlorophenylamino)-3-cyano-7-ethoxyquinolin-6-yl)-2-(1-methylpiperidin-4-ylidene)acetamide], the inhibition at 3 µM (A431 cells) was 41% and the inhibition at 3 µM (BT474 cells) was 91%.
C#Cc1cccc(Nc2c(C#N)cnc3cc(OCCOC)c(NC(=O)C=C4CCNCC4)cc23)c1 [Example 169, N-(3-cyano-4-(3-ethynylphenylamino)-7-(2-methoxyethoxy)quinolin-6-yl)-2-(piperidin-4-ylidene)acetamide] gave an inhibition at 3 µM (A431 cells) of 92% and an inhibition at 3 µM (BT474 cells) of 58%.
Compound COCCN1CCC(=CC(=O)Nc2cc3c(Nc4ccc(OCc5ccccn5)c(Cl)c4)c(C#N)cnc3cc2OC)CC1 [Example 198, N-(4-(3-chloro-4-(pyridin-2-ylmethoxy)phenylamino)-3-cyano-7-methoxyquinolin-6-yl)-2-(1-(2-methoxyethyl)piperidin-4-ylidene)acetamide] has an inhibition at 3 µM (BT474 cells) of 86%.
Work on N#Cc1cnc2ccc(NC(=O)C=C3CCNCC3)cc2c1Nc1ccc(OCc2ccccn2)c(Cl)c1 [Example 166, N-(4-(3-chloro-4-(pyridin-2-ylmethoxy)phenylamino)-3-cyanoquinolin-6-yl)-2-(ppiperidin-4-ylidene)acetamide] yielded an inhibition at 3 µM (A431 cells) of 49% and an inhibition at 3 µM (BT474 cells) of 85%.
In the case of COCCOc1cc2ncc(C#N)c(Nc3ccc(F)c(Cl)c3)c2cc1NC(=O)C=C1CCNCC1 [Example 149, N-(4-(3-chloro-4-fluorophenylamino)-3-cyano-7-(2-methoxyethoxy)quinolin-6-yl)-2-(piperidin-4-ylidene)acetamide], the inhibition at 3 µM (A431 cells) is reported as 92% and the inhibition at 3 µM (BT474 cells) is reported as 53%.
For COCCOc1cc2ncc(C#N)c(Nc3ccc(OCc4cccc(F)c4)c(Cl)c3)c2cc1NC(=O)C=C1CCN(CCOC)CC1 [Example 211, N-(4-(4-(3-fluorobenzyloxy)-3-chlorophenylamino)-3-cyano-7-(2-methoxyethoxy)quinolin-6-yl)-2-(1-(2-methoxyethyl)piperidin-4-ylidene)acetamide], the inhibition at 3 µM (BT474 cells) was 81%.
With CCOc1cc2ncc(C#N)c(Nc3ccc(F)c(Cl)c3)c2cc1NC(=O)C=C1CCN(CCOC)CC1 [Example 157, N-(4-(3-chloro-4-fluorophenylamino)-3-cyano-7-ethoxyquinolin-6-yl)-2-(1-(2-methoxyethyl)piperidin-4-ylidene)acetamide] the inhibition at 3 µM (A431 cells) was 85% and the inhibition at 3 µM (BT474 cells) was 59%.
With CCOc1cc2ncc(C#N)c(Nc3ccc(F)c(Cl)c3)c2cc1NC(=O)C=C1CCN(C)CC1 [Example 156, N-(4-(3-chloro-4-fluorophenylamino)-3-cyano-7-ethoxyquinolin-6-yl)-2-(1-methylpiperidin-4-ylidene)acetamide] the inhibition at 3 µM (A431 cells) was 89% and the inhibition at 3 µM (BT474 cells) was 60%.
Compound CCN1CCC(=CC(=O)Nc2cc3c(Nc4ccc(OCc5ccccn5)c(Cl)c4)c(C#N)cnc3cc2OCCOC)CC1 [Example 201, N-(4-(3-chloro-4-(pyridin-2-ylmethoxy)phenylamino)-3-cyano-7-(2-methoxyethoxy)quinolin-6-yl)-2-(1-ethylpiperidin-4-ylidene)acetamide] has an inhibition at 3 µM (BT474 cells) of 89%.
With COc1cc2ncc(C#N)c(Nc3ccc(OCc4ccccn4)c(Cl)c3)c2cc1NC(=O)C=C1CCN(C)CC1 [Example 197, N-(4-(3-chloro-4-(pyridin-2-ylmethoxy)phenylamino)-3-cyano-7-methoxyquinolin-6-yl)-2-(1-methylpiperidin-4-ylidene)acetamide] the inhibition at 3 µM (BT474 cells) was 82%.
Compound CCCN1CCC(=CC(=O)Nc2cc3c(Nc4ccc(OCc5ccccn5)c(Cl)c4)c(C#N)cnc3cc2OCCOC)CC1 [Example 202, N-(4-(3-chloro-4-(pyridin-2-ylmethoxy)phenylamino)-3-cyano-7-(2-methoxyethoxy)quinolin-6-yl)-2-(1-propylpiperidin-4-ylidene)acetamide] has an inhibition at 3 µM (BT474 cells) of 92%.
With CCOc1cc2ncc(C#N)c(Nc3ccc(OCc4ccccn4)c(Cl)c3)c2cc1NC(=O)C=C1CCN(CC)CC1 [Example 199, N-(4-(3-chloro-4-(pyridin-2-ylmethoxy)phenylamino)-3-cyano-7-ethoxyquinolin-6-yl)-2-(1-ethylpiperidin-4-ylidene)acetamide] the inhibition at 3 µM (BT474 cells) was 87%.
Compound COCCOc1cc2ncc(C#N)c(Nc3ccc(OCc4ccccn4)c(Cl)c3)c2cc1NC(=O)C=C1CCN(C)CC1 [Example 200, N-(4-(3-chloro-4-(pyridin-2-ylmethoxy)phenylamino)-3-cyano-7-(2-methoxyethoxy)quinolin-6-yl)-2-(1-methylpiperidin-4-ylidene)acetamide] has an inhibition at 3 µM (BT474 cells) of 90%.
CCN1CCC(=CC(=O)Nc2cc3c(Nc4ccc(OCc5cccc(F)c5)c(Cl)c4)c(C#N)cnc3cc2OCCOC)CC1 [Example 209, N-(4-(4-(3-fluorobenzyloxy)-3-chlorophenylamino)-3-cyano-7-(2-methoxyethoxy)quinolin-6-yl)-2-(1-ethylpiperidin-4-ylidene)acetamide] was tested, and the inhibition at 3 µM (BT474 cells) was 78%.
